Assay results taken from US9751854B2 (Millennium Pharmaceuticals, Inc., priority 2014, dated 2017).

What follows are compounds tested against human VPS34 (Homo sapiens (Human), UniProt Q8NEB9) (assay: Human VPS34 enzyme assay (Adapta TR-FRET ADP detection)). Conditions: IC50 range class.
Type: biochemical

Sequence of human VPS34 (Q8NEB9 whole entry): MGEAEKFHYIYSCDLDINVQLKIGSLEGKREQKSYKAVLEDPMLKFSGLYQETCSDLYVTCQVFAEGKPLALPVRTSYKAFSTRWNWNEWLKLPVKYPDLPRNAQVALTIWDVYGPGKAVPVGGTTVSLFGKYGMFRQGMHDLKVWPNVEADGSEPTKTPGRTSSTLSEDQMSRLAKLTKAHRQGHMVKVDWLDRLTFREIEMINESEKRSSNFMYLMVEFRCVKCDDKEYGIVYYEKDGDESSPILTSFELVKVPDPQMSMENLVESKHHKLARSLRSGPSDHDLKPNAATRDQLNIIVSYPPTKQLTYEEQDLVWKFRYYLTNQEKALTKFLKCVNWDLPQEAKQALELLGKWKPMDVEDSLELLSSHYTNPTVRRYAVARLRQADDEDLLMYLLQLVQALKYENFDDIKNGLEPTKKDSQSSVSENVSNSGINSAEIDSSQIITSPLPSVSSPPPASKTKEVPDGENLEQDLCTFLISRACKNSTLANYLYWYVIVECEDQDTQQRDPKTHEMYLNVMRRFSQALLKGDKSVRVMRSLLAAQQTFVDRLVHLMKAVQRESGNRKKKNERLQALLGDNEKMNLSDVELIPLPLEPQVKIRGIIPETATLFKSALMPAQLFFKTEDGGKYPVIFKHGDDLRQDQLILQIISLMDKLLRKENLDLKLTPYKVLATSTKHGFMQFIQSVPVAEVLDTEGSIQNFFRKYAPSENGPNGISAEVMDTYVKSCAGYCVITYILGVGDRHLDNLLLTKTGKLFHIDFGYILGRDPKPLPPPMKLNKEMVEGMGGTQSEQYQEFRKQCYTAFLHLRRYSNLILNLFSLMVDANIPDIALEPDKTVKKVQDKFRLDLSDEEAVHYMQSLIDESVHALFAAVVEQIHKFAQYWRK

| Structure (SMILES) | IC50 |
| --- | --- |
| CC(=O)Nc1cc(-c2cnc(C)c(NC(C)=O)c2)ccn1 [Compound I-193, N,N′-(6-methyl-3,4′-bipyridine-2′,5-diyl)diacetamide] | 0.05 to 0.1 µM |
| CC(=O)Nc1cc(-c2cnc(N)c(S(=O)(=O)Cc3ccccc3Cl)c2)ccn1 [Compound I-172, N-{6-amino-5-[(chlorobenzyl)sulfonyl]-3,4′-bipyridin-2′-yl}acetamide] | 0.01 to 0.05 µM |
| CC(=O)Nc1cc(-c2cnc(C)c(NS(=O)(=O)c3ccc(C(F)(F)F)cc3Cl)c2)ccn1 [Compound I-196, N-[5-({[2-chloro-4-(trifluoromethyl)phenyl]sulfonyl}amino)-6-methyl-3,4′-bipyridin-2′-yl]acetamide] | < 0.01 µM |
| CC(=O)Nc1cc(-c2cnc3[nH]ncc3c2)ccn1 [Compound I-189, N-[4-(1H-pyrazolo[3,4-b]pyridin-5-yl)pyridin-2-yl]acetamide] | 0.05 to 0.1 µM |
| CC(=O)Nc1cc(-c2cnc3[nH]cc(CN(C)C)c3c2)ccn1 [Compound I-85, N-(4-{3-[(dimethylamino)methyl]-1H-pyrrolo[2,3-b]pyridin-5-yl}pyridin-2′-yl)acetamide] | > 0.1 µM |
| Cc1nccc(Nc2cc(-c3cnc(Cl)c(S(=O)(=O)NC4CCC4)c3)ccn2)n1 [Compound I-215, 6-chloro-N-cyclobutyl-2′-((2-methylpyrimidin-4-yl)amino)-[3,4′-bipyridine]-5-sulfonamide] | 0.01 to 0.05 µM |
| CC(=O)Nc1cc(-c2cnc(C)c(NS(=O)(=O)c3ccc(C)cc3)c2)ccn1 [Compound I-80, N-(6-methyl-5-{[(4-methylphenyl)sulfonyl]amino]-3,4′-bipyridin-2′-yl)acetamide] | < 0.01 µM |

Second part, the compound after the results:

| IC50 | Structure (SMILES) |
| --- | --- |
| 0.01 to 0.05 µM | Cc1nccc(Nc2cc(-c3cnc(C)c(C(=O)N4CC5(COC5)C4)c3)ccn2)n1 [Compound I-415, {6-methyl-2′-[(2-methylpyrimidin-4-yl)amino]-3,4′-bipyridin-5-yl}(2-oxa-6-azaspiro[3,3]hept-6-yl)methanone] |
| 0.01 to 0.05 µM | Cc1nccc(Nc2cc(-c3cnc(C)c(C(=O)N4CCCCC4)c3)ccn2)n1 [Compound I-262, [6-methyl-2′-[(2-methylpyrimidin-4-yl)amino]-3,4′-bipyridin-5-yl](piperidin-1-yl)methanone] |
| 0.01 to 0.05 µM | CC(=O)Nc1cc(-c2cnc(C)c(N3CC(N(C)C)CS3(=O)=O)c2)ccn1 (single isomer, unassigned) [Compound I-496, N-(5-(4-(dimethylamino)-1,1-dioxidoisothiazolidin-2-yl)-6-methyl-[3,4′-bipyridin]-2′-yl)acetamide] |
| 0.01 to 0.05 µM | CC(=O)Nc1cc(-c2cncc(NS(=O)(=O)c3ccc(F)cc3F)c2Cl)ccn1 [Compound I-394, N-(4-chloro-5-{[(2,4-difluorophenyl)sulfonyl]amino}-3,4′-bipyridin-2′-yl)acetamide] |
| 0.01 to 0.05 µM | CC(=O)Nc1cc(-c2cncc(NS(=O)(=O)N(C)C)c2)ccn1 [Compound I-348, N-{5-[(dimethylsulfamoyl)amino]-3,4′-bipyridin-2′-yl}acetamide] |
| 0.01 to 0.05 µM | CC(=O)Nc1cc(-c2cnc(Cl)c(NS(=O)(=O)N3CCCC3)c2C)ccn1 [Compound I-488, N-{6-chloro-4-methyl-5-[(pyrrolidin-1-ylsulfonyl)amino]-3,4′-bipyridin-2′-yl}acetamide] |
| < 0.01 µM | Cc1nccc(Nc2cc(-c3cnc(C)c(NS(=O)(=O)N(C)C)c3)ccn2)n1 [Compound I-286, N,N-dimethyl-N′-{6-methyl-2′-[(2-methylpyrimidin-4-yl)amino]-3,4′-bipyridine-5-yl}sulfuric diamide] |
| 0.01 to 0.05 µM | CC(=O)Nc1cc(-c2cnc(Cl)c(S(=O)(=O)NC(C)(C)C)c2C)ccn1 [Compound I-410, N-[5-(tert-butylsulfamoyl)-6-chloro-4-methyl-3,4′-bipyridin-2′-yl]acetamide] |
| 0.01 to 0.05 µM | CC(=O)Nc1cc(-c2cnc(Cl)c(NS(=O)(=O)c3ccccc3Cl)c2C)ccn1 [Compound I-240, N-(6-chloro-5-{[(2-chlorophenyl)sulfoayl]amino}-4-methyl-3,4′-bipyridin-2′-yl)acetamide] |
